This is an account of results in ChEMBL document CHEMBL1201862, “PubChem BioAssay data set” (2004).

Among the test systems are NCI-H460; UACC-62; SNB-19; OVCAR-3; HL-60; SF-539; RXF 393; KM12; HCC 2998; ACHN; TK-10; 786-0; SN12C; SF-268; K562; SK-MEL-28; MOLT-4; NCI-H522.
What all share (assay): DTP human tumour cell line panel, 48 h

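In this assay, cells in 96-well plates receive the compound at five concentrations for 48 hours. Endpoints are linearly interpolated between the surrounding concentrations. GI50 marks 50% less growth.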 Activity calls are given as the source filed them. Cut-off read from the data, not from the text of the source: active = GI50 up to about 1.1 µM and inactive = higher.

Take `COc1ccc(NN=C2C(=O)CCC2=O)cc1`: the GI50 in the assay on NCI-H460 is > 100 µM (inactive); in the assay with UACC-62, 5.69 µM (inactive); with SNB-19 it was > 100 µM (inactive); with OVCAR-3 it was > 100 µM (inactive); in the assay on HL-60, > 100 µM (inactive); in the assay with SF-539, > 100 µM (inactive). The GI50 with RXF 393 is > 100 µM (inactive); in the assay on KM12, > 100 µM (inactive); in the assay on HCC 2998 it was > 100 µM (inactive); with ACHN it was 74.3 µM (inactive); in the assay with TK-10, > 100 µM (inactive); with 786-0, > 100 µM (inactive). Besides, the GI50 in the assay with SN12C, with SF-268, in the assay on K562, in the assay on SK-MEL-28 and in the assay on MOLT-4 was > 100 µM (inactive) in each case.

With `OC(Cn1cncn1)(Cn1cncn1)c1ccc(Cl)cc1Cl`, the GI50 in the assay with NCI-H460, in the assay with UACC-62, in the assay with OVCAR-3, with HL-60, with SF-539 and with RXF 393 was > 100 µM (inactive) throughout. Besides, the GI50 in the assay on KM12, in the assay on ACHN, with TK-10, with 786-0, in the assay on SN12C and with SF-268 was > 100 µM (inactive) each time. In addition, the GI50 with K562, in the assay on SK-MEL-28, in the assay with MOLT-4 and in the assay on NCI-H522 was > 100 µM (inactive) throughout.

Take `CCOc1cc(/C=C/C=C/c2ccc(N(C)C)cc2)[s+]c2ccccc12`: the GI50 was 18.6 µM (inactive) in the assay with NCI-H460; 14.4 µM (inactive) in the assay on UACC-62; 31.3 µM (inactive) with SNB-19; 14.2 µM (inactive) in the assay with OVCAR-3; 0.857 µM (active) in the assay on HL-60; 14.1 µM (inactive) in the assay with SF-539. In addition, the GI50 in the assay on RXF 393 is 24.2 µM (inactive); in the assay with KM12, 17.1 µM (inactive); with HCC 2998 it was 59.6 µM (inactive); in the assay with ACHN, 30.5 µM (inactive); in the assay with TK-10 it was 33.2 µM (inactive); in the assay on 786-0 it was 19 µM (inactive). Moreover, the GI50 with SN12C is 35.8 µM (inactive); in the assay on SF-268 it was 18.4 µM (inactive); in the assay on K562, 4.85 µM (inactive); with SK-MEL-28, 27.2 µM (inactive); in the assay with MOLT-4, 6.85 µM (inactive).

Turning to `O=C(NC(Cc1ccccc1)C(=O)CCl)OCc1ccccc1` (stereo not given), the GI50 with NCI-H460 is 5.74 µM (inactive); in the assay with UACC-62 it was 9.2 µM (inactive); in the assay on SNB-19, 12.3 µM (inactive); with OVCAR-3, 5.24 µM (inactive); in the assay on HL-60, 3.07 µM (inactive); in the assay on SF-539 it was 4.76 µM (inactive). Also, the GI50 is 10 µM (inactive) with KM12; 18.1 µM (inactive) in the assay on HCC 2998; 10.1 µM (inactive) in the assay with ACHN; 15 µM (inactive) in the assay on TK-10; 3.83 µM (inactive) with 786-0; 4.91 µM (inactive) in the assay with SN12C. Besides, the GI50 with SF-268 is 5.05 µM (inactive); in the assay on K562 it was 3.2 µM (inactive); with SK-MEL-28, 12.1 µM (inactive); with NCI-H522, 1.67 µM (inactive).

For the compound `Cc1nc2c(=O)[nH]c(=O)n(C)c2[nH]c1=O.c1ccncc1`, the GI50 in the assay on NCI-H460, with UACC-62, in the assay on SNB-19, with OVCAR-3, in the assay with HL-60 and with RXF 393 was > 100 µM (inactive) each time. For the same compound, the GI50 in the assay with KM12, in the assay on HCC 2998, with ACHN, in the assay with TK-10, with 786-0 and in the assay on SN12C was > 100 µM (inactive) in each case. Moreover, the GI50 in the assay with SF-268, with K562, in the assay on SK-MEL-28, with MOLT-4 and in the assay on NCI-H522 was > 100 µM (inactive) each time.

As for `CC(=O)N(CCN)CCN`, the GI50 is > 10 µM (inactive) in the assay with NCI-H460; > 100 µM (inactive) in the assay on UACC-62; > 10 µM (inactive) in the assay with SNB-19; > 10 µM (inactive) in the assay on OVCAR-3; > 10 µM (inactive) with HL-60; > 10 µM (inactive) in the assay with RXF 393. Also, the GI50 is > 10 µM (inactive) in the assay on KM12; > 10 µM (inactive) in the assay on HCC 2998; > 100 µM (inactive) with ACHN; > 10 µM (inactive) in the assay on TK-10; > 10 µM (inactive) in the assay on 786-0; > 10 µM (inactive) in the assay on SN12C. For the same compound, the GI50 in the assay with SF-268 is > 100 µM (inactive); with K562, > 10 µM (inactive); with SK-MEL-28 it was > 10 µM (inactive); with MOLT-4, > 10 µM (inactive); with NCI-H522, > 10 µM (inactive).

With `COc1ccc(C2C(Cl)C(=O)N2NC(=O)Cc2ccccc2)cc1OC` (stereo not given), the GI50 in the assay with NCI-H460, in the assay on UACC-62, in the assay on SNB-19, in the assay with OVCAR-3, in the assay with HL-60 and with RXF 393 was > 100 µM (inactive) each time. The GI50 in the assay with KM12, in the assay on HCC 2998, with ACHN, with TK-10, with 786-0 and in the assay on SN12C was > 100 µM (inactive) throughout. Also, the GI50 in the assay on SF-268, with K562, in the assay on SK-MEL-28, with MOLT-4 and in the assay on NCI-H522 was > 100 µM (inactive) in each case.

On to `CN1CCCC2(CCCc3ccccc32)C1` (stereo not given), for which the GI50 in the assay on NCI-H460, in the assay with UACC-62, in the assay with OVCAR-3, in the assay on HL-60, with SF-539 and in the assay with KM12 was > 100 µM (inactive) throughout. In addition, the GI50 in the assay on HCC 2998, in the assay with ACHN, in the assay with TK-10, with 786-0, with SN12C and in the assay with SF-268 was > 100 µM (inactive) throughout. The GI50 with K562, with SK-MEL-28, in the assay with MOLT-4 and in the assay with NCI-H522 was > 100 µM (inactive) each time.

In the case of `c1ccc(-c2ccnc3c2ccc2c(-c4ccccc4)ccnc23)cc1`, the GI50 with NCI-H460 is 2.39 µM (inactive); in the assay with UACC-62, 0.418 µM (active); with SNB-19, 1.19 µM (inactive); in the assay on OVCAR-3, 2.47 µM (inactive); with HL-60 it was 0.809 µM (active); with SF-539 it was 2.06 µM (inactive). In addition, the GI50 is 1.83 µM (inactive) in the assay on RXF 393; 0.628 µM (active) in the assay on KM12; 1.11 µM (active) in the assay on ACHN; 0.279 µM (active) in the assay with TK-10; 2.64 µM (inactive) with 786-0; 2.26 µM (inactive) in the assay with SN12C. In addition, the GI50 in the assay on SF-268 was 3.12 µM (inactive); in the assay on K562 it was 0.621 µM (active); in the assay with SK-MEL-28 it was 4.57 µM (inactive); in the assay with MOLT-4 it was 0.514 µM (active); with NCI-H522, 1.46 µM (inactive).

For the compound `O=c1c2cccnc2ncn1CCCN1CCCCC1`, the GI50 with NCI-H460, in the assay on UACC-62, with SNB-19, with OVCAR-3, in the assay on SF-539 and in the assay with RXF 393 was > 100 µM (inactive) each time. The GI50 with KM12, with ACHN, in the assay on TK-10, in the assay on 786-0, in the assay with SN12C and with SF-268 was > 100 µM (inactive) in each case. For the same compound, the GI50 in the assay on K562, in the assay with SK-MEL-28, in the assay on MOLT-4 and in the assay on NCI-H522 was > 100 µM (inactive) in each case.

With `O=C1C(=O)N(c2ccc(Cl)c(Cl)c2)C(=O)C(=O)C1c1nc2ccccc2o1`, the GI50 in the assay on NCI-H460 was > 100 µM (inactive); in the assay with UACC-62, 74.8 µM (inactive); in the assay with SNB-19 it was 72.9 µM (inactive); with OVCAR-3, > 100 µM (inactive); in the assay with HL-60, 22.9 µM (inactive); in the assay with SF-539 it was > 100 µM (inactive). Also, the GI50 was > 100 µM (inactive) with KM12; > 100 µM (inactive) in the assay on HCC 2998; > 100 µM (inactive) in the assay on ACHN; > 100 µM (inactive) in the assay on TK-10; > 100 µM (inactive) in the assay with 786-0; 94.6 µM (inactive) in the assay on SN12C. Besides, the GI50 in the assay with SF-268 is > 100 µM (inactive); with K562 it was 36.6 µM (inactive); in the assay on SK-MEL-28, > 100 µM (inactive); with MOLT-4, 31.7 µM (inactive); with NCI-H522, 57.4 µM (inactive).

Consider `CCCCCCCCCCCCC(=O)CCCCC(=O)O`, for which the GI50 with NCI-H460 was 19.4 µM (inactive); in the assay on UACC-62 it was 17.9 µM (inactive); in the assay on SNB-19 it was 54.7 µM (inactive); with OVCAR-3, 31.8 µM (inactive); in the assay with HL-60 it was 13.5 µM (inactive); in the assay on SF-539, 17.5 µM (inactive). The GI50 is 34.9 µM (inactive) with RXF 393; 15.8 µM (inactive) with KM12; 26.5 µM (inactive) in the assay with ACHN; 44.9 µM (inactive) in the assay on TK-10; 27.2 µM (inactive) with 786-0; 24 µM (inactive) in the assay on SN12C. Further, the GI50 is 31.6 µM (inactive) in the assay with SF-268; 16.2 µM (inactive) in the assay on K562; 20.7 µM (inactive) in the assay with SK-MEL-28; 14.6 µM (inactive) in the assay with MOLT-4; 20.3 µM (inactive) in the assay on NCI-H522.
